From patent publication US4156724A, “N-acylamino-alpha-arylacetamido cephalosporins and antibacterial compositions and methods containing them” (Sumitomo Chemical Company, Limited, priority 1974, dated 1979)
≈ marks a conversion by molar mass, not a printed value.

Experiments:
Assay type in all cases: cell-based
[1] = system: Klebsiella pneumoniae 602; test: Minimum Inhibitory Concentration, Klebsiella pneumoniae 602; conditions: Klebsiella pneumoniae, 602, Klebsiella pneumoniae 602; read-out: Minimum Inhibitory Concentration
Protocol: (§1) anti-microbial activity tests were carried out on the compounds obtained in the Examples.

[2] = system: Pseudomonas aeruginosa 104; test: Minimum Inhibitory Concentration, Pseudomonas aeruginosa 104; conditions: Pseudomonas aeruginosa 104; read-out: Minimum Inhibitory Concentration
Protocol: as §1

[3] = system: Staphylococcus aureus 209 P; test: Minimum Inhibitory Concentration, Staphylococcus aureus 209 P; conditions: Staphylococcus aureus 209 P; read-out: Minimum Inhibitory Concentration
Protocol: as §1

[4] = system: Escherichia coli NIHJ; test: Minimum Inhibitory Concentration, Escherichia coli NIHJ; conditions: Escherichia coli NIHJ; read-out: Minimum Inhibitory Concentration
Protocol: as §1

[5] = system: Staphylococcus aureus FS 289; test: Minimum Inhibitory Concentration, Staphylococcus aureus FS 289; conditions: FS289; Staphylococcus aureus FS 289, strain resistant to penicillin; read-out: Minimum Inhibitory Concentration
Protocol: as §1
*Staphylococcus aureus FS 289: strain resistant to penicillin

[6] = system: Proteus vulgaris HX 19; test: Minimum Inhibitory Concentration, Proteus vulgaris HX 19; conditions: HX19; Proteus vulgaris HX 19; read-out: Minimum Inhibitory Concentration
Protocol: as §1

[7] = system: Serratia No. 72; test: Minimum Inhibitory Concentration, Serratia No. 72
Protocol: as §1

[8] = system: Enterobacter aerogeneus No. 75; test: Minimum Inhibitory Concentration, Enterobacter aerogeneus No. 75; conditions: Enterobacter aerogeneus No. 75; read-out: Minimum Inhibitory Concentration
Protocol: as §1

Structure (SMILES)	MIC [1] [µg/mL]	MIC [2] [µg/mL]	MIC [3] [µg/mL]	MIC [4] [µg/mL]	MIC [5] [µg/mL]	MIC [6] [µg/mL]	MIC [7] [µg/mL]	MIC [8] [µg/mL]
Nc1cccc(C(NC(=O)c2cnccc2O)C(=O)NC2C(=O)N3C(C(=O)O)=C(CSc4nnc(CO)s4)CSC23)c1 (centres unmarked) [Example 69]	6.25 (≈ 9.93 µM)	6.25 (≈ 9.93 µM)	0.39 (≈ 0.619 µM)	6.25 (≈ 9.93 µM)	6.25 (≈ 9.93 µM)	0.2 (≈ 0.318 µM)	50 (≈ 79.4 µM)	12.5 (≈ 19.9 µM)
Cn1nnnc1SCC1=C(C(=O)O)N2C(=O)C(NC(=O)C(NC(=O)c3cnc4cncnc4c3O)c3cccc(N)c3)C2SC1 (centres unmarked) [Example 72]	6.25 (≈ 9.62 µM)	6.25 (≈ 9.62 µM)	0.78 (≈ 1.2 µM)	3.13 (≈ 4.82 µM)	6.25 (≈ 9.62 µM)	0.2 (≈ 0.308 µM)	50 (≈ 77 µM)	12.5 (≈ 19.2 µM)
CN(C)c1ccc2ncc(C(=O)NC(C(=O)NC3C(=O)N4C(C(=O)O)=C(CSc5nnnn5C)CSC34)c3cccc(N)c3)c(O)c2n1 (centres unmarked) [Example 74]	3.13 (≈ 4.52 µM)	3.13 (≈ 4.52 µM)	0.78 (≈ 1.13 µM)	1.56 (≈ 2.26 µM)	6.25 (≈ 9.03 µM)	0.1 (≈ 0.145 µM)	12.5 (≈ 18.1 µM)	6.25 (≈ 9.03 µM)
Cc1nnc(SCC2=C(C(=O)O)N3C(=O)C(NC(=O)C(NC(=O)c4cnc5sccc5c4O)c4cccc(N)c4)C3SC2)s1 (centres unmarked) [Example 75]	3.13 (≈ 4.67 µM)	6.25 (≈ 9.33 µM)	1.56 (≈ 2.33 µM)	6.25 (≈ 9.33 µM)	12.5 (≈ 18.7 µM)	0.39 (≈ 0.582 µM)	25 (≈ 37.3 µM)	12.5 (≈ 18.7 µM)
Cc1nnc(SCC2=C(C(=O)O)N3C(=O)C(NC(=O)C(NC(=O)c4cnc5c(O)ccnc5c4O)c4cccc(N)c4)C3SC2)s1 (centres unmarked) [Example 76]	3.13 (≈ 4.6 µM)	3.13 (≈ 4.6 µM)	0.78 (≈ 1.15 µM)	3.13 (≈ 4.6 µM)	6.25 (≈ 9.18 µM)	0.2 (≈ 0.294 µM)	12.5 (≈ 18.4 µM)	3.13 (≈ 4.6 µM)
Cn1nnnc1SCC1=C(C(=O)O)N2C(=O)C(NC(=O)C(NC(=O)c3cnc4ccc(O)nc4c3O)c3cccc(N)c3)C2SC1 (centres unmarked) [Example 77]	3.13 (≈ 4.71 µM)	3.13 (≈ 4.71 µM)	0.78 (≈ 1.17 µM)	3.13 (≈ 4.71 µM)	6.25 (≈ 9.4 µM)	0.1 (≈ 0.15 µM)	12.5 (≈ 18.8 µM)	3.13 (≈ 4.71 µM)

More lines, in order of falling MIC [1], values ahead:

MIC [1] [µg/mL]	MIC [2] [µg/mL]	MIC [3] [µg/mL]	MIC [4] [µg/mL]	MIC [5] [µg/mL]	MIC [6] [µg/mL]	MIC [7] [µg/mL]	MIC [8] [µg/mL]	Structure (SMILES)
3.13 (≈ 4.74 µM)	3.13 (≈ 4.74 µM)	0.78 (≈ 1.18 µM)	3.13 (≈ 4.74 µM)	6.25 (≈ 9.46 µM)	0.2 (≈ 0.303 µM)	12.5 (≈ 18.9 µM)	3.13 (≈ 4.74 µM)	Nc1cccc(C(NC(=O)c2cnc3cccnc3c2O)C(=O)NC2C(=O)N3C(C(=O)O)=C(CSc4ccc(O)nn4)CSC23)c1 (centres unmarked) [Example 65]
3.13 (≈ 4.6 µM)	3.13 (≈ 4.6 µM)	0.78 (≈ 1.15 µM)	3.13 (≈ 4.6 µM)	6.25 (≈ 9.18 µM)	0.1 (≈ 0.147 µM)	12.5 (≈ 18.4 µM)	3.13 (≈ 4.6 µM)	Nc1cccc(C(NC(=O)c2cnc3cccnc3c2O)C(=O)NC2C(=O)N3C(C(=O)O)=C(CSc4nnc(CO)s4)CSC23)c1 (centres unmarked) [Example 66]
3.13 (≈ 4.61 µM)	3.13 (≈ 4.61 µM)	0.78 (≈ 1.15 µM)	1.56 (≈ 2.3 µM)	3.13 (≈ 4.61 µM)	0.1 (≈ 0.147 µM)	12.5 (≈ 18.4 µM)	3.13 (≈ 4.61 µM)	COc1ccc2ncc(C(=O)NC(C(=O)NC3C(=O)N4C(C(=O)O)=C(CSc5nnnn5C)CSC34)c3cccc(N)c3)c(O)c2n1 (centres unmarked) [Example 67]
3.13 (≈ 4.83 µM)	3.13 (≈ 4.83 µM)	0.78 (≈ 1.2 µM)	1.56 (≈ 2.4 µM)	3.13 (≈ 4.83 µM)	0.1 (≈ 0.154 µM)	12.5 (≈ 19.3 µM)	3.13 (≈ 4.83 µM)	Cn1nnnc1SCC1=C(C(=O)O)N2C(=O)C(NC(=O)C(NC(=O)c3cnc4cccnc4c3O)c3cccc(N)c3)C2SC1 (centres unmarked) [Example 68]
3.13 (≈ 4.5 µM)	6.25 (≈ 8.98 µM)	1.56 (≈ 2.24 µM)	3.13 (≈ 4.5 µM)	6.25 (≈ 8.98 µM)	0.1 (≈ 0.144 µM)	12.5 (≈ 18 µM)	6.25 (≈ 8.98 µM)	CSc1cnc2c(O)c(C(=O)NC(C(=O)NC3C(=O)N4C(C(=O)O)=C(CSc5nnnn5C)CSC34)c3cccc(N)c3)cnc2n1 (centres unmarked) [Example 70]
3.13 (≈ 4.83 µM)	3.13 (≈ 4.83 µM)	1.56 (≈ 2.4 µM)	1.56 (≈ 2.4 µM)	6.25 (≈ 9.63 µM)	0.1 (≈ 0.154 µM)	12.5 (≈ 19.3 µM)	3.13 (≈ 4.83 µM)	Cn1nnnc1SCC1=C(C(=O)O)N2C(=O)C(NC(=O)C(NC(=O)c3cnc4cccnc4c3O)c3ccc(N)cc3)C2SC1 (centres unmarked) [Example 71]
3.13 (≈ 4.6 µM)	6.25 (≈ 9.18 µM)	0.78 (≈ 1.15 µM)	6.25 (≈ 9.18 µM)	6.25 (≈ 9.18 µM)	0.2 (≈ 0.294 µM)	25 (≈ 36.7 µM)	6.25 (≈ 9.18 µM)	CSc1ncc2c(O)c(C(=O)NC(C(=O)NC3C(=O)N4C(C(=O)O)=C(CSc5cnn[nH]5)CSC34)c3cccc(N)c3)cnc2n1 (centres unmarked) [Example 73]
